Results taken from EP4427759A1, “TRACEABLE CHIMERIC ANTIGEN RECEPTOR CELL” (Eberhard-Karls-Universität Tübingen, priority 2023, dated 2024).

How the values were obtained:
[1] = test system: HCT116 AdCAR xenografts; experiment: HCT116 AdCAR xenograft model, PET/MR and ex vivo biodistribution by gamma-counting; assay type: in vivo, NOD.CB17-Prkdcscid/J mice
Protocol: (§1) For the xenograft model, 5 × 10^6 cells/mL cells were injected. Five NOD.CB17-Prkdcscid/J were injected with HCT116 WT, and five additional mice were injected with HCT116 AdCAR subcutaneously into the right flank in a mixture of 1:1 Matrigel and PBS (200 µL per mouse) with a 1 mL syringe (30G canula). Afterwards the tumors grew for approximately two weeks before PET and MR measurements.
(§2) For the xenograft model a one-hour dynamic PET scan was performed. The mice were anaesthetized with isoflurane (initially 5%, then 1.5-2%) and a catheter was placed into the tail vein. The mice were placed onto the scanner bed and the body was centered into the field of view (FOV). Mice were injected with13.6 ± 0.35 MBq of [^18F]biotin3FB on average at the beginning of the PET scan and measured for 1h. Afterwards, MR scans were performed to gain anatomical information using an TurboRare spin-echo sequence. After the scans, the mice were sacrificed, and the organs were collected to quantify radiotracer uptake by ex vivo gamma-counting.
(§3) Reconstruction and analysis of the acquired PET/MR data was performed with Inveon Acquisition Workplace and Inveon Research Workplace (IRW), respectively, using dynamic framing and an ordered subset expectation maximization (OSEM) 3D algorithm. For the second part of the experiment statistic framing was used. Regions of interest (ROIs) were drawn under consideration of the acquired MR images and co-registered with the PET data to obtain time-activity curves (TACs).

[2] = test system: Jurkat AdCAR cells; experiment: Jurkat model, static PET/MR and ex vivo biodistribution; assay type: in vivo, mice; details: Jurkat AdCAR vs Jurkat CTRL i.p.; day 1, 3 and 7 after cell injection; 1 h resting uptake
Protocol: Five mice were injected with 1 × 10^7 cells/mL Jurkat LucGFP (CTRL), and five additional mice were injected with 1 × 10^7 cells/mL Jurkat aCAR in 200µl PBS into the peritoneal cavity with a 1 mL syringe (30G canula).
For the Jurkat model a ten-minute static PET scan was performed. The mice were anaesthetized with isoflurane (initially 5%, then 1.5-2) and a catheter was placed into the tail vein. The mice were injected with 13.6 ± 0.24 MBq of [^18F]biotin3FB on average and afterwards placed in an isoflurane box for a one-hour resting uptake. After 1 h, the mice were placed onto the scanner bed, the body was centered into the FOV, and a 10 min PET scan was performed. Afterwards, MR scans were performed as described above. The PET and MR measurements took place on day 1, 3 and 7 after cell injection. When the measurements on the 7th day were finished, the mice were sacrificed and uptake in spleen, lymph nodes, muscle and blood were quantified by ex vivo gamma-counting.
(§4) Reconstruction and analysis of the acquired PET/MR data was performed with Inveon Acquisition Workplace and Inveon Research Workplace (IRW), respectively, using dynamic framing and an ordered subset expectation maximization (OSEM) 3D algorithm. For the second part of the experiment statistic framing was used. […]

[3] = test system: HCT116 CTRL xenografts; experiment: HCT116 control xenograft model, ex vivo biodistribution by gamma-counting; assay type: in vivo, NOD.CB17-Prkdcscid/J mice; details: gamma-counting after 1 h dynamic PET scan, n = 5
Protocol: as §1, §2, §4

[4] = one-hour dynamic PET scan, time activity curves of organs; assay type: in vivo, NOD.CB17-Prkdcscid/J mice
Protocol: as §2, §3

[5] = ex vivo biodistribution, xenograft model

Substance: [^18F]biotin3fluorobenzoate [[^18F]biotin3FB]
- uptake in xenografts, ex vivo biodistribution analysis ([1]; AdCAR expressing xenografts, gamma-counting after 1 h dynamic PET scan, n = 5): 4.59 % ID/g
- tumor-to-muscle ratio (TMR), AdCAR xenografts compared to control xenografts ([1]; P=0.0159, Mann-Whitney test, n = 5 per group): significantly higher
- absolute tumor uptake, AdCAR xenografts compared to control xenografts ([1]; p = 0.0050, unpaired t test, n = 5 per group): significantly higher
- difference between AdCAR expressing cells and control cells (PET/MR, spleen uptake) [2]: no difference
- uptake in xenografts, ex vivo biodistribution analysis [3]: 0.73 % ID/g
- SUVpeak(aCAR), brain TAC ([4]; brain, mice with HCT116 AdCAR xenografts): 0.54
- SUVpeak(CTRL), brain TAC ([4]; brain, mice with HCT116 CTRL xenografts): 0.45
- blood half-life ([4]; calculated from the heart TAC, i.v. tail vein): 2.3 min
- radiotracer uptake in the brain [4, 5]: Almost no uptake
- radiotracer uptake in the kidney [4, 5]: High radiotracer uptake
